# Source: article PMC7217877, “N-AS-triggered SPMs are direct regulators of microglia in a model of Alzheimer’s disease” (Nature Communications, 2020)
# “And” between values parts separate entries of the source, which are not always exact repeats. Equal entries are not always repeated.
# Assays:
# [1] = tested on: astrocyte; assay: N-AS generation in primary cultured cells (LC-MS/MS); type: cell-based, C57BL/6 mice; set-up: dose or concentration left out as unconfirmed; conditions: Ab, replicates
# Protocol: (§1) Reactions were quenched by adding equal volume of cold methanol. A 100 μl aliquot of the reaction mixture was mixed with 30 μl of distilled water containing 5 ng ml^−1 of furosemide (internal standard) for 1 min and vigorously mixed with […] of ethyl acetate for 20 min. After centrifugation at 16,000×g for 10 min, the mixtures were kept for 2 h for freezing aqueous phase. The upper ethyl acetate layer was transferred to a clean tube and evaporated to dryness under a gentle stream of nitrogen. Then, the dried extract was reconstituted in 100 µl of mobile phase and 10 µl aliquot of the solution was injected into an Agilent 6470 Triple Quad LC–MS/MS system (Agilent, Wilmington, DE) coupled with an Agilent 1260 HPLC system. […] Quantification was carried out using multiple reaction monitoring (MRM) at m/z 340.3→263.3 for N-AS and m/z 328.9→284.8 for furosemide (internal standard) in negative ionization mode and collision energy of 20 eV. […]
# (§2) To confirm the generation and roles of N-AS in neurons, cells from E18 C57BL/6 mice were prepared as previously described. […] Aβ 1–42 (10 μM, 24 h, Invitrogen, 03112) was exposed to neurons and the cells were analyzed for the generation and roles of N-AS. […]
# [2] = tested on: microglia; assay: as above; type: cell-based, C57BL/6 mice; set-up: dose or concentration left out as unconfirmed; conditions: Ab, replicates
# Protocol: as §1, §2
substance,measurement,setting,value
"Ab: Aβ 1–42 (Invitrogen, 03112) used to induce an AD environment in cells",N-AS quantification (Fig 3a),[1],0.05349 and 0.0246 and 0.05789 and 0.03905 and 0.04125 and 0.04847
same,N-AS quantification (Fig 3a),[2],1.15 and 1.365 and 1.237 and 1.2575 and 1.301 and 1.247
